Results from patent US20250276009A1, “Therapeutic use of hydrogen sulfide in frostbite injury” ([(The)] London Health Sciences Centre Research Inc., priority 2024, published 2025).
Read-outs that look alike come from different tables or passages of the source.

How the values were obtained:
[1] = system: frostbite injury on the dorsal skin of C57BL/6 mice; experiment: Frostbite wound size / wound healing after daily topical application of H2S donor in vehicle cream; format: in vivo, C57BL/6 mice (Mus musculus); settings: for reduction of frostbite wound from day 4 to day 15 versus vehicle control: 150 μM STS or 200 μmol/kg GYY4137 in hyaluronan/phosphatidylethanolamine vehicle cream; for reduction of frostbite wound from day 4 to day 15 versus vehicle control / frostbite wound size compared to vehicle-treated control mice: daily topical; for frostbite wound healing compared to vehicle control group: daily topical in vehicle cream until day 15
Excerpt: The Animal Use Committee of the University of Western Ontario approved all experimental procedures. The experimental procedures were considered as Category D from the Canadian Council of Animal Care's Categories of Invasiveness for Animal Experiments. A total of 25 […] mice aged between 8-10 weeks old were obtained from Charles River Canada (Senneville, Quebec, Canada) and housed 5 per cage under a 12-hour light/dark cycle at the Health Sciences Animal Care Facility at the University of Western Ontario (London, Ontario, Canada). Mice were randomly assigned to 5 groups being healthy control (n=5), crush control (n=5), vehicle control (n=5), 200 nM AP39 (n=5) and 1 μM AP39 (n=5).
To ease the process of skin preparation, mice were initially anesthetized with a combination of 20 mg/ml xylazine and 100 mg/mL ketamine intraperitoneally, and the dorsal fur of the animals were shaved using electric clippers from the top of the hind legs to the base of the neck. A depilatory cream was then used to remove any fur still remaining. General anesthesia was maintained by inhalation of 5% isoflurane and oxygen delivered at 400 mL/minute to minimize the time of recovery post-anesthesia. Following complete fur removal, the skin of the animal was cleaned completely of the hair removal cream using an alcohol prep pad. Next, a silicone sheet was used as a template to trace a uniform circle on the surface of the skin using a permanent marker. The circular outline on the back of the animal was used as a guide during frostbite injury (see FIGS. 1A to 1E).
The vehicle cream containing hyaluronan and phosphatidylethanolamine (referred to as HEPE) as active ingredients, was provided by Dr. Eva Turley, and allowed for delivery of AP39 to the vascularized layers of the dermis. AP39 was generously provided by Dr. Matthew Whiteman (Exeter, UK) and diluted to a stock concentration of 1 mM in DMSO. […] To prepare the cream+H2S donor compound, the H2S donor was added via micropipette combined by stirring and subsequent mixing using a vortex device to final concentrations of 200 nM, 1 µM and 150 μM.

[2] = system: frostbite injury on the dorsal skin of C57BL/6 mice; experiment: Histopathological scoring (H&E) of frostbite wound tissue, day 15; format: in vivo, C57BL/6 mice (Mus musculus); settings: for chronic inflammation (histological score 0-3) vs vehicle control: 200 μmol/kg GYY4137 or 150 μM STS; for progress of frostbite wound healing phase (histopathology, collective): daily topical in vehicle cream, day 15
Method: The formalin-fixed skin tissue samples were embedded in paraffin blocks and sectioned at 8-μm thick on a microtome and collected on SuperFrost Plus® glass slides (J1800AMNZ, Thermo Fisher Scientific Inc., Germany). Histology was performed on the tissue sections using hematoxylin and eosin (H&E) staining to visualize general tissue morphology and assess the degree of tissue injury. A modified version of a previously developed histological scoring system established by Abramov et al was used for this study. The histopathological scoring was assessed blindly by a dermatopathologist for 5 parameters of healing (acute inflammation, chronic inflammation, amount of granulation tissue, fibroblast maturation and re-epithelialization) and assigned a score as per the following scheme: 0=None; 1=Scant; 2=Moderate; 3=Abundant. Acute inflammation was scored based on the presence of neutrophils while chronic inflammation was evaluated based on the presence of plasma cells and monocytes. Fibroblast maturation was determined on the basis of shape and alignment of these cells.

cleaved caspase-3 = experiment: Immunofluorescence staining of frostbite wound tissue, day 15: apoptosis marker; format: in vivo, C57BL/6 mice (Mus musculus); settings: daily topical in vehicle cream, day 15, vs vehicle control
Method: (§1) Based on a previously validated model [1], 100% ceramic magnets (diameter 18.0 mm, thickness 5.0 mm, weight 4.5 g) were used to induce frostbite injury. Magnets were frozen in dry ice (−80° C.) prior to animal skin preparation. The dorsal skin of C57BL/6 mice (Mus musculus) was pinched to create a skin fold and a silicone sheet was placed underneath as illustrated in FIG. 1D. The silicone sheet acted as a barrier to prevent the mice from possible systemic hypothermia while creating a precise injury and maximizing survival. Two frozen magnets were then placed on the skin from opposite sides of the skin fold such that they adhered with the middle of the circle outline at the peak of the fold's center as described by Auerbach et al., [1] and illustrated in FIG. 1D. After 1 minute, the magnets were removed and new frozen magnets simultaneously placed in order to keep the freezing temperature of the magnets consistent and ensured that no thawing of the skin occurred. A total of 3 magnet exchange cycles occurred in order to induce frostbite injury to the mice for 3 minutes after which the skin was allowed to thaw completely. […] The animals were placed on a heating pad set to 37° C. to mitigate the risk of death due to systemic hypothermia. Upon induction of frostbite injury, the mice were randomly assigned to the following groups: vehicle cream control, 200 nM AP39 plus vehicle cream, 1 μM AP39 plus vehicle cream, 150 μM STS plus vehicle cream, 200 μmol/kg GYY4137 plus vehicle cream, and received daily topical application of vehicle cream without H2S donor, vehicle cream containing 200 nM AP39 (200 μL), vehicle cream containing 1 μM AP39 (200 μL), vehicle cream containing 150 μM STS (200 μL) and vehicle cream containing 200 μmol/kg GYY4137 (200 μL) respectively until time of sacrifice.
Another group of mice that received no frostbite injury or room temperature magnet placement served as healthy controls. […]

CD31 = experiment: Immunofluorescence staining of frostbite wound tissue, day 15: vascularization and angiogenesis marker; format: in vivo, C57BL/6 mice (Mus musculus); settings: for angiogenesis compared to vehicle control: daily topical in vehicle cream, day 15, p<0.01
Method: as §1
(§2) Post-procedure analgesia included administration of meloxicam at 1 mg/kg/day for 3 days. Another group of mice that received no frostbite injury or room temperature magnet placement served as healthy controls. All groups of mice were sacrificed by CO2 euthanasia on day 15 after frostbite induction or room temperature magnet placement, and samples of the injured dorsal skin tissue were collected and stored in 10% neutral buffered formalin for histopathological analysis. The animals were euthanized on day 15 because this is the time point at which markers of wound healing were expected to be best seen in the wound as previously reported [5].
(§3) Immunofluorescence staining was performed to detect the expression of cleaved caspase-3 (1:100; a marker for apoptosis and is being used to assess frostbite damage), CD31 (1:100; a marker of vascularization and angiogenesis, as it is found on early endothelial cells), KI-67 (1:50; a marker of proliferation, which is abundant in a healing wound as granulation tissue forms and re-epithelialization occurs), fibronectin (1:100; secreted by fibroblasts to generate granulation tissue, which is the new connective tissue that covers a wound.), cytokeratin (1:200; a marker of differentiation and proliferation of keratinocytes, which are important for re-epithelialization of a wound) and CD163 (1:200; a macrophage-specific marker during wound healing) [7, 8]. These antibodies were purchased from Abcam in Toronto, Canada to examine the degree of frostbite injury as well as important healing stages including angiogenesis, re-epithelialization, granulation tissue formation and inflammation. Following a rehydration step in xylene and decreasing series of alcohol (100%, 95%, 70% and 50%) and de-ionized water, the tissue sections were washed with 1× phosphate buffered saline (PBS) for 10 minutes.

KI-67 = experiment: Immunofluorescence staining of frostbite wound tissue, day 15: proliferation marker; format: in vivo, C57BL/6 mice (Mus musculus); settings: for cell proliferation compared to vehicle control: daily topical in vehicle cream, day 15, p<0.001
Method: as §1, §2
(§4) Immunofluorescence staining was performed to detect the expression of cleaved caspase-3 (1:100; a marker for apoptosis and is being used to assess frostbite damage), CD31 (1:100; a marker of vascularization and angiogenesis, as it is found on early endothelial cells), KI-67 (1:50; a marker of proliferation, which is abundant in a healing wound as granulation tissue forms and re-epithelialization occurs), fibronectin (1:100; secreted by fibroblasts to generate granulation tissue, which is the new connective tissue that covers a wound.), cytokeratin (1:200; a marker of differentiation and proliferation of keratinocytes, which are important for re-epithelialization of a wound) and CD163 (1:200; a macrophage-specific marker during wound healing) [7, 8]. These antibodies were purchased from Abcam in Toronto, Canada to examine the degree of frostbite injury as well as important healing stages including angiogenesis, re-epithelialization, granulation tissue formation and inflammation. […]

CD163 = experiment: Immunofluorescence staining of frostbite wound tissue, day 15: macrophage-specific marker; format: in vivo, C57BL/6 mice (Mus musculus); settings: for CD163 expression: day 15
Method: as §1, §2, §4

fibronectin = experiment: Immunofluorescence staining of frostbite wound tissue, day 15: granulation tissue marker; format: in vivo, C57BL/6 mice (Mus musculus); settings: for fibronectin expression: day 15; for granulation tissue formation compared to vehicle control: daily topical in vehicle cream, day 15, p<0.001
Method: as §1, §2, §3

cytokeratin = settings: day 15
Method: as §1
Post-procedure analgesia included administration of meloxicam at 1 mg/kg/day for 3 days. Another group of mice that received no frostbite injury or room temperature magnet placement served as healthy controls. All groups of mice were sacrificed by CO2 euthanasia on day 15 after frostbite induction or room temperature magnet placement, and samples of the injured dorsal skin tissue were collected and stored in 10% neutral buffered formalin for histopathological analysis. The animals were euthanized on day 15 because this is the time point at which markers of wound healing were expected to be best seen in the wound as previously reported [5]. […]

[3] = 150 μM STS with Nivea, vs Nivea alone
[4] = 150 μM STS in Aveeno vs Aveeno without STS
[5] = 150 μM STS in Dove vs Dove without STS
[6] = 150 μM STS in Neutrogena vs Neutrogena without STS
[7] = 150 μM STS in Nivea vs Nivea without STS
[8] = 1 μM AP39 vs 200 nM AP39 and vehicle control, day 15, p<0.05
[9] = 1 μM AP39, relative to 200 nM AP39, day 15, p<0.05

SMILES: O=S([O-])([O-])=S.[Na+].[Na+] [STS, sodium thiosulfate]
- wound size compared to the corresponding vehicle control without STS ([1]; 150 μM STS in commercially available creams (Aveeno, Dove, Neutrogena, Nivea), day 4 to day 15): progressively reduced wound size
- reduction of frostbite wound from day 4 to day 15 versus vehicle control [1]: slightly smaller than that of the vehicle control
- wound size, day 15 ([1]; 150 μM STS with Aveeno, vs Aveeno alone): reduced wound size
- wound size, day 15 ([1]; 150 μM STS with Dove, vs Dove alone): reduced wound size
- wound size, day 4 [1, 3]: reduced wound size
- wound size, day 15 [1, 3]: reduced wound size
- wound healing, comparison of delivery creams ([1]; STS via Aveeno and Nivea creams compared to Dove and Neutrogena): improved wound healing compared to Dove® and Neutrogena®
- frostbite wound healing compared to vehicle control group [1]: improved wound healing
- chronic inflammation (histological score 0-3) vs vehicle control ([2]; day 15, p>0.05): did not show significant difference
- progress of frostbite wound healing phase (histopathology, collective) [2]: hastened frostbite wound healing from inflammatory to proliferative phase
- apoptosis in frostbite injury (cleaved caspase-3 expression) (cleaved caspase-3): no effect
- CD31 expression (CD31; 150 μM STS in Aveeno vs Aveeno without STS, day 15): significant upregulation
- CD31 expression (CD31; 150 μM STS in Dove vs Dove without STS, day 15): significant upregulation
- CD31 expression (CD31; 150 μM STS in Neutrogena vs Neutrogena without STS, day 15): No significant change
- CD31 expression (CD31; 150 μM STS in Nivea vs Nivea without STS, day 15): significant upregulation
- angiogenesis compared to vehicle control (CD31): improved
- cell proliferation compared to vehicle control (KI-67): improved
- CD163 expression (CD163; [4]): significant increase
- CD163 expression (CD163; [5]): significant increase
- CD163 expression (CD163; [6]): decrease in CD163 expression albeit not significant
- CD163 expression (CD163; [7]): significant increase
- fibronectin expression (fibronectin; [4]): significantly increased
- fibronectin expression (fibronectin; [5]): did not increase fibronectin expression significantly
- fibronectin expression (fibronectin; [6]): did not increase fibronectin expression significantly
- fibronectin expression (fibronectin; [7]): significantly increased
- granulation tissue formation compared to vehicle control (fibronectin): improved
- cytokeratin expression (cytokeratin; [4]): significantly increased
- cytokeratin expression (cytokeratin; [5]): No significant change
- cytokeratin expression (cytokeratin; [6]): significantly increased
- cytokeratin expression (cytokeratin; [7]): significantly increased

SMILES: O=C(CCCCCCCCC[P+](c1ccccc1)(c1ccccc1)c1ccccc1)Oc1ccc(-c2cc(=S)ss2)cc1.[Br-] [AP39, (10-oxo-10-(4-(3-thioxo-3H-1,2-dithiol-5-yl)phenoxy)decyl)triphenylphosphonium bromide]
- frostbite wound size compared to vehicle-treated control mice ([1]; 200 nM AP39 in vehicle cream containing hyaluronan and phosphatidylethanolamine, day 4 to day 15): progressively reduced wound size
- frostbite wound size compared to vehicle-treated control mice ([1]; 1 μM AP39 in vehicle cream containing hyaluronan and phosphatidylethanolamine, day 4 to day 15): progressively reduced wound size
- frostbite wound healing compared to vehicle control group [1]: improved wound healing
- chronic inflammation (histological score 0-3) ([2]; 200 nM AP39, day 15, p>0.05): did not change
- fibroblast maturation (histological score 0-3) ([2]; 200 nM AP39 vs 1 μM AP39 and vehicle control, day 15, p<0.05): highest
- chronic inflammation (histological score 0-3) ([2]; 1 μM AP39, day 15, p>0.05): did not change
- acute inflammation (histological score 0-3) [2, 8]: significantly greater
- amount of granulation tissue (histological score 0-3) [2, 8]: markedly increased
- wound re-epithelialization (histological score 0-3) ([2]; AP39 (200 nM and 1 μM) vs vehicle control, day 15, p>0.05): increased wound re-epithelialization (epithelial restitution) albeit not significantly different
- progress of frostbite wound healing phase (histopathology, collective) [2]: hastened frostbite wound healing from inflammatory to proliferative phase
- apoptosis in frostbite injury (cleaved caspase-3 expression) (cleaved caspase-3): no effect
- CD31 expression (CD31; 200 nM AP39, day 15, p<0.05): markedly expressed
- CD31 expression (CD31; [9]): significantly reduced
- angiogenesis compared to vehicle control (CD31): improved
- KI-67 expression (KI-67; 200 nM AP39, day 15, p<0.05): markedly expressed
- KI-67 expression (KI-67; [9]): significantly reduced
- cell proliferation compared to vehicle control (KI-67): improved
- CD163 expression (M2-like anti-inflammatory macrophages) (CD163; 200 nM AP39, day 15): increased anti-inflammatory activity
- fibronectin expression compared to vehicle control mice (fibronectin; 200 nM AP39, day 15): significantly increased expression
- fibronectin expression compared to vehicle control mice (fibronectin; 1 μM AP39, day 15): significantly increased expression
- granulation tissue formation compared to vehicle control (fibronectin): improved

SMILES: C1COCCN1.COc1ccc(P(=S)(S)N2CCOCC2)cc1 (centres unmarked) [GYY4137]
- reduction of frostbite wound from day 4 to day 15 versus vehicle control [1]: slightly smaller than that of the vehicle control
- frostbite wound healing compared to vehicle control group [1]: improved wound healing
- chronic inflammation (histological score 0-3) vs vehicle control ([2]; day 15, p>0.05): did not show significant difference
- progress of frostbite wound healing phase (histopathology, collective) [2]: hastened frostbite wound healing from inflammatory to proliferative phase
- apoptosis in frostbite injury (cleaved caspase-3 expression) (cleaved caspase-3): no effect
- angiogenesis compared to vehicle control (CD31): improved
- cell proliferation compared to vehicle control (KI-67): improved
- granulation tissue formation compared to vehicle control (fibronectin): improved
